The source of these data is PubChem BioAssay (NCI).

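Grown in 96-well plates, cells were treated for 48 hours with each compound at five concentrations. Insufficient inhibition: endpoint recorded as highest concentration tested. GI50 marks 50% less growth. TGI: total growth inhibition.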

What all share (experiment): NCI anticancer screen, dose series, 48 h
The subject of test [1] is HOP-62 NSCLC.
Test [2] concerns HOP-92 NSCLC.
The subject of test [3] is 786-0 renal.
The subject of test [4] is RXF 393 renal.
Test [5] has as its system HCT-15 colon.
The test system of test [6] is A549 NSCLC.
For test [7], the system named is KM12 colon.
Test [8] has as its system TK-10 renal.
The test system of test [9] is RPMI-8226 leukemia.

Take `COc1cc(CC2C(=O)OCC2[C@@H](OC(C)=O)c2ccc3c(c2)OCO3)c(Br)c(OC)c1OC` (stereo partly specified): the TGI was over 100 µM in [1]; 92.7 µM in test [2]; over 100 µM in [3]; over 100 µM in test [4]; over 100 µM in test [5]; over 100 µM in test [6]. Moreover, the TGI in test [7] and in [8] was over 100 µM throughout.

As to `O=c1sc(-c2nc3ccccc3[nH]2)c(/N=C/c2ccccc2)n1-c1ccccc1`, the TGI was 73.7 µM in test [1]; over 100 µM in [3]; over 100 µM in test [4]; over 100 µM in [5]; over 100 µM in test [9]; over 100 µM in test [6]. In addition, the TGI in test [7] and in test [8] was over 100 µM in each case.

In the case of `c1cnc2nc3n(c2c1)CSC3`, the TGI in [1], in test [2], in [3], in test [4], in [5] and in [9] was over 100 µM in each case. The TGI in [6], in [7] and in test [8] was over 100 µM in each case.

Take `COC(=O)C1=Cc2cn(S(=O)(=O)c3ccc(C)cc3)c3cccc(c23)C(C=C(C)C)N1C(C)=O` (stereo unspecified): the TGI in test [1], in test [2], in [3], in [4], in test [6] and in test [7] was over 100 µM throughout. In [8], this compound registered a TGI of over 100 µM.

In the case of `O=Cc1cn(S(=O)(=O)c2ccccc2)c2ccccc12`, the TGI in [1] was over 100 µM; in [3] it was over 100 µM; in test [4], over 100 µM; in [5], over 100 µM; in test [9], 59.3 µM; in test [6] it was over 100 µM. Moreover, the TGI in test [7] and in test [8] was over 100 µM throughout.

For the compound `N/C(=N/N=C/c1cccc(F)c1)NO`, the TGI is 82.1 µM in test [1]; over 100 µM in test [2]; over 100 µM in test [3]; 78.4 µM in test [4]; over 100 µM in test [5]; over 100 µM in test [9]. Also, the TGI in [6] is 98.7 µM; in test [7], over 100 µM; in test [8], over 100 µM.

Consider `C=C(C)[C@@H]1CC[C@]2(C(=O)N3CCN(C)CC3)CC[C@]3(C)[C@H](CC[C@@H]4[C@@]5(C)CC[C@H](O)C(C)(C)[C@@H]5CC[C@]43C)[C@@H]12`, for which the GI50 in test [1] was 1.91 µM; in test [2] it was 1.69 µM; in [3], 1.49 µM; in [4], 1.53 µM; in [5] it was 1.69 µM; in test [6] it was 1.88 µM. Further, the GI50 in [7] is 2.09 µM; in test [8] it was 1.79 µM. The TGI in test [1] stood at 3.75 µM; in [2], 3.42 µM; in test [3] it was 3.17 µM; in test [4], 3.21 µM; in test [5], 3.86 µM; in test [6] it was 3.88 µM. The results for the TGI in test [7] and in test [8] were 4.03 µM and 3.38 µM, respectively.

For `CN(CC1NCCCC1O)C12CC3CC(CC(C3)C1)C2` (stereo unspecified), the TGI in [1], in test [2], in test [3], in test [5], in test [9] and in test [6] was over 100 µM in each case. The TGI in test [7] and in test [8] was over 100 µM throughout.

Regarding `O=C1CCCCCCCCCCOC(=O)CCCCCCCCCCO1`, the TGI in test [1], in [2], in test [3], in [4], in test [5] and in test [6] was over 100 µM each time. Also, the TGI in test [7] and in [8] was over 100 µM in each case.

With `COC(=O)c1cc2c(nc1C)-c1ccccc1OS2(=O)=O`, the TGI in test [1] is 67.8 µM; in test [2], 83.2 µM; in test [3], over 100 µM; in test [4] it was over 100 µM; in test [5] it was over 100 µM; in test [9], over 100 µM. Further, the TGI in [6], in [7] and in test [8] was over 100 µM each time.

As for `CSCC(COC(C)=O)(CSC)c1ccncc1`, the TGI in test [1], in test [3], in [4], in test [5], in test [9] and in test [6] was over 100 µM in each case. The TGI in test [7] and in test [8] was over 100 µM in each case.

In the case of `C=CCn1c(=O)c(C(=O)NC(=O)OCC)cn(C2CCCCC2)c1=O`, the TGI in [1], in test [2], in [3], in test [5], in [9] and in test [6] was over 100 µM in each case. In addition, the TGI in test [7] and in test [8] was over 100 µM in each case.

In the case of `C=C1CCC2(C(C)=O)COC1(C)O2` (stereo unspecified), the TGI in test [1] was over 100 µM; in [3], over 100 µM; in test [4] it was over 10 µM; in test [5], over 100 µM; in test [9], over 100 µM; in [6], over 100 µM. Further, the TGI in test [7] and in test [8] was over 100 µM throughout.

Take `Cc1cc(Cl)ccc1Nc1nc2c(s1)C(=O)c1ccccc1C2=O`: the TGI in test [1] amounted to 9.72 µM; in [2], 27.2 µM; in test [3], 4.38 µM; in test [4], 16.8 µM; in test [5], 3.68 µM; in [9] it was 11.1 µM. Further, the TGI in [6] worked out at 21.4 µM; in [7], 10.7 µM; in test [8], 33.4 µM.

Regarding `COc1cc(OC)c(/C=C/C(=O)c2c(O)cc(OC)c(C3CCN(C)CC3)c2OC)c(OC)c1`, the GI50 in test [1] was 1.73 µM; in test [3], 1.42 µM; in test [4] it was 1.76 µM; in test [5], 1.31 µM; in test [9], 1.11 µM; in test [6] it was 1.57 µM. Further, the GI50 in test [7] is 1.71 µM. Also, the TGI in test [1] was determined as 3.16 µM; in [3] it was 2.72 µM; in test [4], 3.3 µM; in test [5] it was 2.8 µM; in test [9], 2.83 µM; in test [6] it was 2.97 µM. The compound also yielded a TGI in [7] of 3.38 µM.

Consider `O=c1[nH]c(-c2ccc([N+](=O)[O-])cc2)nc2ccc(Cl)cc12`, for which the TGI in test [2] was 84.2 µM; in [3], over 100 µM; in [4], over 100 µM; in [5], over 100 µM; in test [9] it was over 100 µM; in [6] it was over 100 µM. The TGI in test [7] and in test [8] was over 100 µM in each case.

For the compound `CCOC(=O)CP(=S)(S)c1ccccc1` (stereo unspecified), the TGI in [1], in [2], in test [3], in test [4], in test [6] and in test [7] was over 100 µM each time. For the same compound, the TGI in [8] is over 100 µM.

On to `c1ccc(N2N=NC3C4CC(C5c6ccccc6C45)C32)cc1` (stereo unspecified), for which the TGI was over 100 µM in test [1]; 54.6 µM in test [2]; over 100 µM in test [3]; 44.1 µM in test [4]; over 100 µM in test [5]; over 100 µM in test [9]. Besides, the TGI in test [6], in [7] and in [8] was over 100 µM in each case.

For the compound `O=C(CC(=O)N1N=C(c2ccccc2)C(N=Nc2ccccc2Cl)C1=O)Nc1ccccc1Cl` (stereo unspecified), the TGI was over 100 µM in [1]; 49.6 µM in test [3]; over 100 µM in test [5]; 57.2 µM in test [9]; over 100 µM in test [6]; over 100 µM in [7]. In test [8], this compound displayed a TGI of 40.6 µM.

For the compound `Cc1cc(N(CCC#N)CCC#N)ccc1CC1N=C(c2ccccc2)OC1=O` (stereo unspecified), the TGI in test [1], in test [2], in [3], in test [5], in [9] and in test [6] was over 100 µM each time. Moreover, the TGI in test [7] and in test [8] was over 100 µM each time.

Regarding `CC(C)=Cc1cc(C(=O)NCCNC(=O)c2cc(C=C(C)C)nc(NC#N)n2)nc(NC#N)n1`, the TGI in test [1], in [2], in test [3], in [4], in test [5] and in test [9] was over 100 µM each time. Also, the TGI in test [6], in [7] and in test [8] was over 100 µM throughout.

For `CC(O)c1ccc(C(O)/C(=N\NC(=O)c2ccncc2)c2nc3ccc([N+](=O)[O-])cc3[nH]c2=O)cc1` (stereo unspecified), the TGI in [1], in test [2], in test [3], in [4], in test [5] and in test [9] was over 100 µM throughout. The TGI in test [6] and in [7] was over 100 µM throughout.

In the case of `C/C(CC(=O)Nc1cccc(C)c1C)=N\NC(N)=S`, the TGI in test [1], in [2], in [3], in test [4], in test [5] and in test [9] was over 100 µM throughout. Besides, the TGI in [6], in test [7] and in test [8] was over 100 µM each time.

As to `O=[P+](O)c1cccnc1`, the TGI in [1], in test [2], in test [3], in [4], in [5] and in [9] was over 100 µM in each case. In addition, the TGI in [6], in test [7] and in test [8] was over 100 µM in each case.

As to `COC(=O)Cc1nn2c(nc1=O)sc1ccc3ccccc3c12`, the TGI is over 100 µM in [1]; over 100 µM in test [2]; over 100 µM in test [3]; 96 µM in test [4]; over 100 µM in test [5]; over 100 µM in test [6]. The TGI in [7] was over 100 µM.

`Cc1cc2c(C)nn(Cc3ccccc3Cl)c2c(C#N)c1C`: the TGI in test [1], in test [2], in test [3], in test [4], in test [5] and in test [9] was over 100 µM each time. The TGI in test [6] and in [8] was over 100 µM each time.

As to `CCOC(=O)Cn1c(=O)[nH]c(=O)c2[nH]cnc21`, the TGI in [1], in test [3], in test [4], in test [5], in [6] and in test [7] was over 100 µM throughout. Moreover, the TGI in [8] was over 100 µM.

Regarding `O=C(CC1(O)C(=O)Nc2ccc([N+](=O)[O-])cc21)c1ccc(Br)cc1` (stereo unspecified), the TGI was over 100 µM in [1]; over 100 µM in test [3]; 71.1 µM in test [4]; over 100 µM in [5]; over 100 µM in test [9]; over 100 µM in test [6]. Besides, the TGI in test [7] is over 100 µM; in [8], 69.5 µM.

For the compound `O=C(O)CCCc1cc2c(s1)-c1cccc3cccc-2c13`, the TGI was over 100 µM in test [1]; 39 µM in [2]; over 100 µM in test [3]; 51.8 µM in test [5]; 72.5 µM in test [9]; over 100 µM in test [6]. Besides, the TGI was 42.3 µM in test [7] and over 100 µM in test [8].

As to `C1C[S][Ge]2([S]CCS1)[S]CCSCC[S]2`, the GI50 in test [1], in test [2], in test [3], in test [5] and in test [9] was over 100 µM throughout. For the same compound, the TGI in [1], in test [2], in [3], in test [5] and in test [9] was over 100 µM in each case.

Take `COc1cc(=O)oc(/C=C/CO)c1C`: the TGI in test [1], in [2], in test [3], in [4], in test [6] and in test [7] was over 100 µM in each case. In test [8], this compound yielded a TGI of over 100 µM.
